The source of these data is patent publication US6664406B1, “Nervonic acid derivatives, their preparation and use” (Croda International PLC, priority 1999, dated 2003).

Data set [1] concerns acute EAE in the Lewis rat. Description: Prophylactic effect of glyceryl trinervonate on acute EAE (Comparative Example). The data set is classed as in vivo. The method, then: Prophylactic effects of glyceryl trinervonate (GTN, Description 4) were assessed on acute EAE in the Lewis rat. Induction and Assessment of EAE was as for Example 4. Dosing regime involved oral administration in Miglyol 810 five days prior to inoculation and for 20 days post-inoculation. (Refer to Example 8 regarding insignificance of use of PBS or Miglyol vehicles).

The subject of data set [2] is neurological EAE in the Lewis rat.
Method: Male Lewis rats, weighing 230-280 g on the day of inoculation, were injected in each rear footpad with 0.1 ml of an emulsion containing equal parts of guinea pig spinal cord; phosphate buffered saline (PBS) and incomplete Freund's adjuvant supplemented with 10 mg/ml Mycobacterium tuberculosis H37Ra.
Animals were weighed daily and assessed for neurological disease from day 7 post-inoculation (PI). Rats displaying symptoms of EAE were scored as follows: 1: flaccid tail (FT), 2: hind limb hypotonia (HLH), 3: partial hind limb paralysis (PHLP), 4: complete hind limb paralysis (CHLP), 5: moribund or dead.
NA:GLA (neat oil) was orally administered 5 days prior to inoculation and continued for 25 days PI, at a dose of 750 mg/kg body weight/day and 1000 mg/kg body weight/day. NA:DHA (neat oil) was given by an identical dosing regime at a dose of 500 mg/kg body weight/day. Control-sensitised animals received PBS vehicle or were undosed. Undosed, vehicle and low dose NA:GLA treatments contained 7 animals. Four rats received high dose NA:GLA and 3 rats were dosed with NA:DHA.
The nature of data set [3]: Nervonic acid composition of total polar lipid from rat brain (Example 9). The class given is in vivo. The following applies: after Example 6 treatments; NA:GLA at both low and high doses. The method, then:
Upon termination of certain biological evaluations, rat or mice brains were extracted and the fatty acid composition of total polar lipids from rat/mouse brain was determined.
Biological material was sent for analysis to Dr J. Hendersen at the University of Stirling, Institute of Aquaculture, Scotland. Analyses were carried out on two batches of experiments (detailed respectively in Example 6 and Example 7).

In data set [4] the test system is chronic EAE in the Biozzi mouse model. The data set can be described thus: NA:NA and NA:GLA in ethyl oleate in chronic relapsing EAE (Example 7). The following applies: Biozzi mouse; ethyl oleate vehicle alone, compared to undosed. The class given is in vivo. The method, then:
Male Biozzi mice weighing 30-35 g were injected in each flank with 0.15 mL of an emulsion containing lyophilised mouse spinal cord, phosphate buffered saline and incomplete Freund's adjuvant supplemented with Mycobacterium butyricum and Mycobacterium tuberculosis H37Ra.
1: Partial Flaccid Tail (PFT), 2: Complete Flaccid Tail (CFT), 3: Impaired Righting Reflex (IRR), 4: Ataxic Gait (AG), 5: Hind Limb Hypotonia (HLH), 6: Partial Hind Limb Paralysis (PHLP), 7: Complete Hind Limb Paralysis (CHLP), 8: Moribund (M), 9: Dead (D).

The structures appear in SMILES notation.

Turning to `CCCCCCCC/C=C/CCCCCCCCCCCCCC(=O)OCC(COC(=O)CCCCCCCCCCCCC/C=C/CCCCCCCC)OC(=O)CCCCCCCCCCCCC/C=C/CCCCCCCC` [GTN, Glyceryl Trinervonate], the “onset and loss of symptoms together with duration of the disease” value in data set [1] (compared to vehicle or undosed groups) was “not significantly different from vehicle or undosed groups”. Besides, the “adverse effect (body weight gain until day 10)” value in data set [1] (dietary administered) was “did not induce any major adverse effect”. Also, the “effect on parameters associated with neurological deficits in EAE-diseased rats” value in data set [1] (oral in Miglyol 810) is “did not significantly affect any parameter”. The “No. of diseased rats” value in data set [1] (oral in Miglyol 810, 5 days prior to inoculation and 20 days PI, n=10) is reported as 10/10. Besides, in data set [1] (oral in Miglyol 810, n=10), the “CFT: Percentage of rats in the group” value amounted to 100%, the “CHLP: Percentage of rats in the group” value amounted to 40%, the “HLH: Percentage of rats in the group” value was determined as 90% and the “MD: Percentage of rats in the group” value is given as 0%. In data set [1] (oral in Miglyol 810, n=10), the “Mean day of symptom loss” value was determined as 17.0 ± 1.2 days, the “Mean day of symptom onset” value was determined as 11.2 ± 1.2 days, the “Mean duration of symptoms” value was 5.8 ± 1.1 days and the Number of dead is 0/10. Besides, in data set [1] (oral in Miglyol 810, n=10), the “PFT: Percentage of rats in the group” value turned out to be 100% and the “PHLP: Percentage of rats in the group” value amounted to 70%.
On to `CCC=CCC=CCC=CCC=CCC=CC/C=C\CCC(=O)OCCCOC(=O)CCCCCCCCCCCCC/C=C\CCCCCCCC` [NA:DHA, 1-(z-15-tetracosenoyloxy)-3-(z-4,7,10,13,16,19-docosahexaenoyloxy)propane], for which, in data set [2] (500 mg/kg/day), the “CHLP: Number of animals showing symptoms/total” value is 3/3, the “FT: Number of animals showing symptoms/total” value is 3/3, the “HLH: Number of animals showing symptoms/total” value is recorded as 3/3 and the “PHLP: Number of animals showing symptoms/total” value is listed as 3/3. In addition, in data set [2] (500 mg/kg/day), the daily score entry was “enhanced compared to levels noted for control and NA:GLA-treated animals”; the “development of CHLP” value is on record as 11.3±1.3; the “effect on neurological symptoms” value was “intensified neurological symptoms”. In addition, in data set [2] (neat oil oral 500 mg/kg/day), the “Mean day of final symptom loss (±SD)” value turned out to be 19.3 ± 1.2 days, the “Mean day of symptom onset (±SD)” value worked out at 10.3 ± 0.6 days and the Number of dead/total is 0/3. For the same compound, the Number diseased/total in data set [2] (neat oil oral 500 mg/kg/day, 5 days prior to inoculation and 25 days PI) is given as 3/3. In addition, the “NA levels in rat brain lipids compared to normal, undosed and vehicle treated animals” value in data set [3] is “did not enhance the NA levels”.
In the case of `CCCCCCCC/C=C\CCCCCCCC(=O)OCC` [ethyl oleate], the “effect of the vehicle on incidence and severity of chronic relapsing EAE” value in data set [4] is “significantly reduced the incidence and severity of the acute and relapsing phases”.
